Legend:
[1] = system: PC-3 human prostate adenocarcinoma cells; assay type: in vivo; conditions: taxol 7.5 mg/kg i.v. twice weekly, single agent; FIG. 1
Experimental: Female and male athymic nude mice (NCr) 5-8 weeks of age and weighing approximately 20-25 g were used in the following model. Prior to initiation of a study, the animals were allowed to acclimate for a minimum of 48 h. During these studies, animals were provided food and water ad libitum and housed in a room conditioned at 70-75° F. and 60% relative humidity. A12 h light and 12 h dark cycle was maintained with automatic timers. All animals were examined daily for compound-induced or tumor-related deaths.
PC-3 human prostate adenocarcinoma cells were cultured in vitro in DMEM (Mediatech) supplemented with 20% Fetal Bovine Serum (Hyclone), Penicillin-Streptomycin and non-essential amino acids at 37° C. in a humidified 5% CO2 atmosphere. […] A transponder was implanted in each mouse for identification, and animals were monitored daily for clinical symptoms and survival. Body weights were recorded daily.
For subcutaneous or intradermal tumors, the mean tumor weight of each animal in the respective control and treatment groups was determined twice weekly during the study. […] Percent inhibition of tumor growth (TGI) is determined with the following formula: […]
[formula] Tumor size is calculated individually for each tumor to obtain a mean±SEM value for each experimental group. Statistical significance is determined using the 2-tailed Student's t-test (significance defined as P<0.05).

[2] = system: MDA-MB-468 human breast adenocarcinoma cells
Text: (§1) MDA-MB-468 is a human breast carcinoma cell line that has an increase in the copy number of the EGFR gene and a homozygous deletion of PTEN.

[3] = system: MDA-MB-468 cells; conditions: in vitro treatment of MDA-MB-468 cells
Text: as §1

[4] = system: MCF7 human mammary adenocarcinoma cells; experiment: MCF7 breast cancer xenograft model (Study 1 and Study 2); assay type: in vivo; conditions: Compound B 30 mg/kg qd, single agent
Experimental: On day 0, cells were harvested by trypsinization, and 5×10^6 cells (passage 10 and 95.4% viability for Study 1, passage 9 and 90% viability for Study 2) in 100 μL of a solution made of 50% cold Hanks balanced salt solution with 50% growth factor reduced matrigel (R&D Systems for Study 1 and Becton Dickinson for Study 2) implanted subcutaneously into the hindflank of female nude mice.
Compound A was tested both as a single agent and in combination with Compound B, an EGFR inhibitor, in a breast tumor model. The MCF7 human breast carcinoma cell line harbors a heterozygous, activating mutation in PI3K (PI3KCA/E545K) and expresses wild-type EGFR.
Compound B was administered orally once-daily (qd) at 30 mg/kg, and Compound A was administered once-daily at 30 mg/kg or once every other day (q2d) at 100 mg/kg. Combination therapies consisted of Compound B together with Compound A at 30 mg/kg qd or 100 mg/kg q2d.

[5] = system: A549 human lung carcinoma cells; experiment: A549 non-small cell lung cancer xenograft model; assay type: in vivo
Experimental: A transponder was implanted in each mouse for identification, and animals were monitored daily for clinical symptoms and survival. Body weights were recorded daily.
Compound A was tested both as a single agent and in combination with Compound B. The A549 human non-small cell lung carcinoma cell line harbors a homozygous stop mutation in the gene encoding LKB1, and an activating G12S mutation in K-Ras, promoting activation of both PI3K and mTOR. A549 cells also express wild-type EGFR.
As a single agent, Compound B, an inhibitor of EGFR, was orally administered once-daily at 30 mg/kg and Compound A was orally administered either at 30 mg/kg qd or 100 mg/kg q2d. Combination therapies consisted of Compound B with Compound A at 30 mg/kg or 100 mg/kg. Administration of each agent in the combination groups was separated by 6 h.

[6] = system: Calu-6 human lung anaplastic carcinoma cells; experiment: Calu-6 non-small cell lung cancer xenograft model; assay type: in vivo; conditions: carboplatin 50 mg/kg i.v. q4d, single agent; FIG. 3
Experimental: On day 0, cells were harvested by trypsinization, and 5×10^6 cells (passage #8, 96% viability) in 0.1 mL ice-cold Hank's balanced salt solution were implanted intradermally in the hind-flank of 5-8 week old female athymic nude mice. A transponder was implanted in each mouse for identification, and animals were monitored daily for clinical symptoms and survival. Body weights were recorded daily.
Calu-6 is a human NSCLC cell line that harbors a heterozygous activating mutation in K-Ras (Q61K).

[7] = Compound B 30 mg/kg qd, single agent

With `CC(=O)O[C@H]1C(=O)[C@@]2(C)[C@H]([C@H](OC(=O)c3ccccc3)[C@]3(O)C[C@H](OC(=O)[C@H](O)[C@@H](NC(=O)c4ccccc4)c4ccccc4)C(C)=C1C3(C)C)[C@]1(OC(C)=O)CO[C@@H]1C[C@@H]2O` [taxol, Paclitaxel] the tumor growth inhibition [1] was “Comparable tumor growth inhibition”.
For `C#Cc1cccc(Nc2ncnc3cc(OCCOC)c(OCCOC)cc23)c1` [erlotinib], the tumor growth inhibition ([2]; erlotinib oral 100 mg/kg qd, single agent, FIG. 5) was “significant but incomplete tumor growth inhibition”, the “rate of body weight gain” value ([2]; mouse, in vivo) was “apparent decrease in their rate of body weight gain” and the PI3K pathway [3] was “fails to downregulate the PI3K pathway”.
`COc1cc2c(Nc3ccc(Cl)c(Cl)c3F)ncnc2cc1OC[C@@H]1C[C@@H]2CN(C)C[C@@H]2C1` [Compound B, N-(3,4-dichloro-2-fluorophenyl)-7-({[(3aR,5r,6aS)-2-methyloctahydrocyclopenta-[c]pyrrol-5-yl]methyl}oxy)-6-(methyloxy)quinazolin-4-amine] was tested, and the tolerability [4] was “generally well tolerated”, the body weight loss [5, 7] was 1.5-6.9% and the dose omission [5, 7] was “no dose omission”. For the same compound, the tolerability [5, 7] was “generally well tolerated”, the tumor growth inhibition ([5]; Compound B oral 30 mg/kg once-daily for 18 days, single agent) was 80% and the “tolerability (summary)” value ([5]; single agent administration) was “well tolerated with minimal dose skipping”.
`N.N.O=C([O-])C1(C(=O)[O-])CCC1.[Pt+2]` [carboplatin] was tested, and the tumor growth inhibition [6] was “Significant tumor growth inhibition”.

Source: patent publication US8481001B2, “Combination therapies comprising quinoxaline inhibitors of P13K-alpha for use in the treatment of cancer” (Exelixis, Inc., priority 2007, dated 2013)
